Results reported in PubChem BioAssay AID1259407 (Chemical Carcinogenesis Research Information System (CCRIS), 2018).
Calls of active or inactive are those of the source. The rule behind the calls is not given here.

Tested on: CCRIS mutagenicity, Ames/micronucleus/aberration tests
Test: CCRIS mutagenicity studies
Details: Test System: AMES SALMONELLA TYPHIMURIUM, Method: PREINCUBATION
[1] = Strain/Indicator: TA97, Metabolic Activation: NONE
[2] = Strain/Indicator: TA98, Metabolic Activation: NONE
[3] = Strain/Indicator: TA100, Metabolic Activation: NONE

Measured: mutagenic call

COc1cc(-c2cc(OC)cc(C(C)(C)C)c2O)c(O)c(C(C)(C)C)c1
inactive: [1] inactive; negative | Strain/Indicator: TA97, Metabolic Activation: RAT, LIVER, S-9, PCB inactive; negative | [2] inactive; negative | Strain/Indicator: TA98, Metabolic Activation: RAT, LIVER, S-9, PCB inactive; negative | [3] inactive; negative | Strain/Indicator: TA100, Metabolic Activation: RAT, LIVER, S-9, PCB inactive; negative | Strain/Indicator: TA102, Metabolic Activation: NONE inactive; negative | Strain/Indicator: TA102, Metabolic Activation: RAT, LIVER, S-9, PCB inactive; negative

CCCCC(CC)CN (stereo not drawn)
inactive: Strain/Indicator: TA97, Metabolic Activation: HAMSTER, LIVER, S-9, AROCLOR 1254 (10%) inactive; negative | Strain/Indicator: TA97, Metabolic Activation: HAMSTER, LIVER, S-9, AROCLOR 1254 (30%) inactive; negative | [1] inactive; negative | Strain/Indicator: TA97, Metabolic Activation: RAT, LIVER, S-9, AROCLOR 1254 (10%) inactive; negative | Strain/Indicator: TA97, Metabolic Activation: RAT, LIVER, S-9, AROCLOR 1254 (30%) inactive; negative | Strain/Indicator: TA98, Metabolic Activation: HAMSTER, LIVER, S-9, AROCLOR 1254 (10%) inactive; negative | Strain/Indicator: TA98, Metabolic Activation: HAMSTER, LIVER, S-9, AROCLOR 1254 (30%) inactive; negative | [2] inactive; negative | Strain/Indicator: TA98, Metabolic Activation: RAT, LIVER, S-9, AROCLOR 1254 (10%) inactive; negative | Strain/Indicator: TA98, Metabolic Activation: RAT, LIVER, S-9, AROCLOR 1254 (30%) inactive; negative | Strain/Indicator: TA100, Metabolic Activation: HAMSTER, LIVER, S-9, AROCLOR 1254 (10%) inactive; negative | Strain/Indicator: TA100, Metabolic Activation: HAMSTER, LIVER, S-9, AROCLOR 1254 (30%) inactive; negative | [3] inactive; negative | Strain/Indicator: TA100, Metabolic Activation: RAT, LIVER, S-9, AROCLOR 1254 (10%) inactive; negative | Strain/Indicator: TA100, Metabolic Activation: RAT, LIVER, S-9, AROCLOR 1254 (30%) inactive; negative | Strain/Indicator: TA1535, Metabolic Activation: HAMSTER, LIVER, S-9, AROCLOR 1254 (10%) inactive; negative | Strain/Indicator: TA1535, Metabolic Activation: HAMSTER, LIVER, S-9, AROCLOR 1254 (30%) inactive; negative | Strain/Indicator: TA1535, Metabolic Activation: NONE inactive; negative | Strain/Indicator: TA1535, Metabolic Activation: RAT, LIVER, S-9, AROCLOR 1254 (10%) inactive; negative | Strain/Indicator: TA1535, Metabolic Activation: RAT, LIVER, S-9, AROCLOR 1254 (30%) inactive; negative
